From patent US10179777B2, “3-(1H-benzimidazol-2-yl)-1H-pyridin-2-one derivatives” (MERCK PATENT GMBH, priority 2015, dated 2019) come the findings set out here.

In test [1] the target is T1, ALK1 (GST-modified kinase domain ACVRL1 (139-503)) (Homo sapiens, UniProt P37023).
T1 construct: N-terminally GST-modified kinase domain ACVRL1 (139-503); GST (N)
T1 sequence (P37023 139-503): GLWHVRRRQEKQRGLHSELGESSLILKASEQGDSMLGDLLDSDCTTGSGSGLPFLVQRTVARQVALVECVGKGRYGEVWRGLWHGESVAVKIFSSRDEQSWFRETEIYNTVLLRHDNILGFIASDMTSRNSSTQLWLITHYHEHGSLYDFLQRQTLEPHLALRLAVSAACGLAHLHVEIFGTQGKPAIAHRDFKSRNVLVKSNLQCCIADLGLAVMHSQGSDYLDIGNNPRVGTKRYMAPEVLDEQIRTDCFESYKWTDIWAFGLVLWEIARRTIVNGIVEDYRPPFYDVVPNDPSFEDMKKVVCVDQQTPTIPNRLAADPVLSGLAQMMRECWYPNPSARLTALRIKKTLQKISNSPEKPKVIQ
The experiment in a line: ALK1 kinase inhibition assay (33P-ATP filter binding, Reaction Biology). It counts as biochemical. To be noted: casein substrate, 100 μM ATP (Km ATP), 120 min ambient temperature. An outline of the steps:
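GST-tagged kinase domain with 20 mg/ml casein substrate in 20 mM HEPES pH 7.5, 10 mM MgCl2, 1 mM EGTA, 2 mM DTT, 1% DMSO; 120 min at ambient temperature. Phosphorylation read by P81 filter binding; background-subtracted activity as percent of DMSO vehicle, curve-fit for IC50.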

Test [2] addresses T2, ALK2 (GST-modified kinase domain ACVR1(145-509)) (Homo sapiens, UniProt Q04771).
T2 construct: N-terminally GST-modified kinase domain ACVR1(145-509); GST (N)
T2 sequence (Q04771 145-509): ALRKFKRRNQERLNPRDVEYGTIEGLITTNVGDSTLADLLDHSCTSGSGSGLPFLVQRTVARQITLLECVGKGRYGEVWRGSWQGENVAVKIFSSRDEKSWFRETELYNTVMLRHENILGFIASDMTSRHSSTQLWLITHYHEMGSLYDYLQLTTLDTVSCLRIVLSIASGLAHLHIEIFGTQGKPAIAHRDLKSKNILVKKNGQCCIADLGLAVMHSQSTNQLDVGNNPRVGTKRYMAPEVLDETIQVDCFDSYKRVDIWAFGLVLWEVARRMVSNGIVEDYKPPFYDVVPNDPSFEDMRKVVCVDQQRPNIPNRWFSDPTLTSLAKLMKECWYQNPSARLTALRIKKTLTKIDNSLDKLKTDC
The experiment in a line: ALK2 kinase inhibition assay (33P-ATP filter binding, Reaction Biology). Conditions: casein substrate, 20 μM ATP (Km ATP), 120 min ambient temperature. In kind it is biochemical. An outline of the steps: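 Human ACVR1(145-509) kinase domain, N-terminal GST-tagged, with 1 mg/ml casein substrate and 33P-ATP in 20 mM HEPES pH 7.5, 10 mM MgCl2, 1 mM EGTA, 2 mM DTT, 1% DMSO. Incubated 120 min at ambient temperature, then spotted on P81 filters and washed. Background-subtracted activity taken as % of DMSO control; IC50 from curve fit.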

The target of test [3] is T3, ALK5 (TGFβR1; GST-modified TGFBR1 (200-503)) (Homo sapiens, UniProt P36897).
T3 construct: Using GST-Modified TGFBR1 (200-503); GST
T3 sequence (P36897 200-503): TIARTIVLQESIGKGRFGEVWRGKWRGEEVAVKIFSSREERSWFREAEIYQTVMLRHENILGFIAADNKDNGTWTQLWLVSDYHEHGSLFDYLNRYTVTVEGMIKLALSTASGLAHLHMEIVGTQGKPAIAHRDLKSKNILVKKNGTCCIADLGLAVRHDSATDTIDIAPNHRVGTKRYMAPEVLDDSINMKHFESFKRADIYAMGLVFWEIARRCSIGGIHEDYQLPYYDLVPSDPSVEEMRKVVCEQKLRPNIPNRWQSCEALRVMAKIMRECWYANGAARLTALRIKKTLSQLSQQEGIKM
Put plainly: ALK5 kinase inhibition assay (33P-ATP filter binding, Reaction Biology). Conditions: casein substrate, 200 μM ATP. In kind it is biochemical. The protocol: The protein sequences of the kinases targeted and accompanying information are described in publically available data base http://www.uniprot.org/uniprot/for ALK1 www.uniprot.org/uniprot/P37023, for ALK2 www.uniprot.org/uniprot/Q04771 and for ALK5 www.uniprot.org/uniprot/P36897. IC50 determination of the novel inhibitors described was performed at Reaction Biology Corp., Malvern, Pa., USA, with assay conditions open to public at www.reactionbiology.com/webapps/site/KinaseDetail.aspx?page=Kinases&id=1, and www.reactionbiology.com/webapps/site/Kinase Assay Protocol.aspx. In addition, they were specified previously in Anastassiadis et al. Nat. Biotechnol. 29(11): 1039-1045. doi:10.1038/nbt.2017.
A3) ALK5 Kinase Inhibition Assay Was Performed Similar to Procedures A1 and A2 Using GST-Modified TGFBR1 (200-503) and 1 mg/ml Casein as Substrate at 200 μM ATP.

Test [4] has as its system ALK1-mediated SMAD1/5 phosphorylation in HUVEC cells. Put plainly: Cell-based immunofluorescence assay for ALK1-mediated SMAD1/5 phosphorylation in HUVEC cells. To be noted: Homo sapiens, 1.5 ng/ml BMP-9 with compound for 2 h, % nuclei with pSMAD1/5 signal, read-out: Smad 1/5 IC50. An outline of the steps: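 Serum-starved primary HUVEC (≤5 passages) were treated with compound (1 nM-30 μM, 10 doses, 0.5% DMSO) plus 1.5 ng/ml BMP-9 for 2 h at 37° C. Cells were then fixed and immunostained for phospho-Smad1/5 (Ser463/465), and % positive nuclei were counted by confocal imaging. Data were normalised to DMSO (0%) and 10 μM reference inhibitor (−100%).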

SMILES strings stand for the structures. Where a name gives a salt, the structure may show the parent alone.

For the compound `CN(C)C1CCN(c2ccc3[nH]c(-c4cc(-c5cccc(CO)c5)c[nH]c4=O)nc3c2)CC1` [Compound A36, 3-[5-(4-Dimethylamino-piperidin-1-yl)-1H-benzimidazol-2-yl]-5-(3-hydroxymethyl-phenyl)-1H-pyridin-2-one formate], the IC50 in test [1] was 2.9 nM; in test [2], 22 nM; in test [3], 1100 nM; in test [4], 240 nM.
`O=c1[nH]cc(-c2ccnc3[nH]ccc23)cc1-c1nc2cc(Oc3ccncc3)ccc2[nH]1` [Compound A40, 3-[5-(Pyridin-4-yloxy)-1H-benzimidazol-2-yl]-5-(1H-pyrrolo[2,3-b]pyridin-4-yl)-1H-pyridin-2-one]: the IC50 is 73 nM in test [1], 56 nM in test [2], 8100 nM in test [3] and 5200 nM in test [4].
On the same counts, the results for `O=c1[nH]cc(-c2ccnc3[nH]ccc23)cc1-c1nc2cc(N3CCOCC3)ccc2[nH]1` [Compound A41, 3-(5-Morpholin-4-yl-1H-benzimidazol-2-yl)-5-(1H-pyrrolo[2,3-b]pyridin-4-yl)-1H-pyridin-2-one] are 10 nM, 7 nM, 430 nM and 190 nM.
Consider `O=c1[nH]cc(-c2ccnc3[nH]ccc23)cc1-c1nc2cc(N3CCCCC3)ccc2[nH]1` [Compound A43, 3-(5-Piperidin-1-yl-1H-benzimidazol-2-yl)-5-(1H-pyrrolo[2,3-b]pyridin-4-yl)-1H-pyridin-2-one], for which the IC50 in test [1] was found to be 45 nM; in test [2], 37 nM; in test [3] it was 870 nM; in test [4] it was 1800 nM.
In the same order, the values of `O=c1[nH]cc(-c2ccnc3[nH]ccc23)cc1-c1nc2cc(N3CCNCC3)ccc2[nH]1` [Compound A44, 3-(5-Piperazin-1-yl-1H-benzimidazol-2-yl)-5-(1H-pyrrolo[2,3-b]pyridin-4-yl)-1H-pyridin-2-one dihydrochloride] are 4 nM, 6 nM, 140 nM and 10000 nM.
In the same order, the values of `O=c1[nH]cc(-c2cccc3[nH]ccc23)cc1-c1nc2cc(N3CCNCC3)ccc2[nH]1` [Compound A48, 5-(1H-Indol-4-yl)-3-(5-piperazin-1-yl-1H-benzimidazol-2-yl)-1H-pyridin-2-one] are 17 nM, 22 nM, 1400 nM and 1000 nM.
On to `Cc1cc2c(-c3c[nH]c(=O)c(-c4nc5cc(N6CCNCC6)ccc5[nH]4)c3)ccnc2[nH]1` [Compound A48a, 5-(2-Methyl-1H-pyrrolo[2,3-b]pyridin-4-yl)-3-(5-piperazin-1-yl-1H-benzimidazol-2-yl)-1H-pyridin-2-one], for which the IC50 in test [1] is 49 nM; in test [2], 44 nM; in test [3], 130 nM; in test [4], 2700 nM.
In the same order, the values of `CN1CCCN(c2ccc3[nH]c(-c4cc(-c5ccnc6[nH]ccc56)c[nH]c4=O)nc3c2)CC1` [Compound A49, 3-[5-(4-Methyl-[1,4]diazepan-1-yl)-1H-benzimidazol-2-yl]-5-(1H-pyrrolo-[2,3-b]pyridin-4-yl)-1H-pyridin-2-one] are 1.4 nM, 26 nM, 280 nM and 3700 nM.
For the compound `CN1CCN(c2ccc3[nH]c(-c4cc(-c5ccnc6[nH]ccc56)c[nH]c4=O)nc3c2)CC1` [Compound A50, 3-[6-(4-Methyl-piperazin-1-yl)-1H-benzimidazol-2-yl]-5-(1H-pyrrolo-[2,3-b]pyridin-4-yl)-1H-pyridin-2-one], the IC50 turned out to be 2 nM in test [1], 5 nM in test [2], 170 nM in test [3] and 400 nM in test [4].
On the same counts, the results for `CN1CCN(c2ccc3[nH]c(-c4cc(-c5cnc6[nH]ccc6c5)c[nH]c4=O)nc3c2)CC1` [Compound A51, 3-[6-(4-Methyl-piperazin-1-yl)-1H-benzimidazol-2-yl]-5-(1H-pyrrolo[2,3-b]-pyridin-5-yl)-1H-pyridin-2-one] are 120 nM, 100 nM, 10000 nM and 5600 nM.
On the same counts, the results for `Cc1[nH]c2ncccc2c1-c1c[nH]c(=O)c(-c2nc3cc(N4CCN(C)CC4)ccc3[nH]2)c1` [Compound A52, 3-[5-(4-Methyl-piperazin-1-yl)-1H-benzimidazol-2-yl]-5-(2-methyl-1H-pyrrolo-[2,3-b]pyridin-3-yl)-1H-pyridin-2-one] are 29 nM, 17 nM, 480 nM and 2600 nM.
In the same order, the values of `CN1CCC(Oc2ccc3[nH]c(-c4cc(-c5ccnc6ccccc56)c[nH]c4=O)nc3c2)CC1` [Compound A59, 3-[6-(1-Methyl-piperidin-4-yloxy)-1H-benzimidazol-2-yl]-5-quinolin-4-yl-1H-pyridin-2-one] are 170 nM, 80 nM, 2500 nM and 12000 nM.
